Data taken from ChEMBL document CHEMBL1125116 (J Med Chem, 1990).

Assays:
[1] = molecular target: T1, D(2) dopamine receptor (Rattus norvegicus, UniProt P61169); assay: Competitive binding assay against Dopamine receptor D2 in rat striatal membranes and [125I]-IBF radioligand; type: cell membranes, Striatum, Membrane
[2] = molecular target: T1, D(2) dopamine receptor; assay: Evaluated in vitro for the affinity towards Dopamine receptor D2 of rat striatal tissue

T1 sequence (P61169 whole entry): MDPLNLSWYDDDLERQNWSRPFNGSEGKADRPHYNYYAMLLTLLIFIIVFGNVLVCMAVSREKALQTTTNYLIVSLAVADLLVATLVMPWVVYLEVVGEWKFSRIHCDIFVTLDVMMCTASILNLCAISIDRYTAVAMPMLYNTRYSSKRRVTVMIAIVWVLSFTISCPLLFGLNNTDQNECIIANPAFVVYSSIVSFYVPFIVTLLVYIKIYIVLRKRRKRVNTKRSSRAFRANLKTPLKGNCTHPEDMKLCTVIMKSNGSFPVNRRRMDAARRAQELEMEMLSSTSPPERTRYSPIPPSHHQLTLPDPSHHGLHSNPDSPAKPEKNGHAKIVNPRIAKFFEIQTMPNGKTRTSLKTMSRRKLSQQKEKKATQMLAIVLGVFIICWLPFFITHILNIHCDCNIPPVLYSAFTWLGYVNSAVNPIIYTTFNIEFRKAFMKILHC

Kd [2] [nM] | SMILES | Ki [1] [nM]
– | NC1CCc2cc(O)c(O)cc2C1 (racemic) | 65.7
14 | COc1cc(N=[N+]=[N-])c(I)cc1C(=O)NC1CCN(Cc2ccccc2)CC1 [IODOAZIDOCLEBOPRIDE] | –
